Results as given in patent US20080249042A1, “All-Trans-Retinol: All-Trans-13,14-Dihydroretinol Saturase and Methods of Its Use” (UNIVERSITY OF WASHINGTON, priority 2004, published 2008).

Columns and labels:
[1] = Liver retinoids of Lrat-/- mice 3 h after gavage with all-trans-RA; type: in vivo, mouse; settings: 3 h post-gavage
Source text: Metabolism of Retinoids in Vivo. All animal experiments employed procedures approved by the University of Washington and conformed to recommendations of the American Veterinary Medical Association Panel on Euthanasia and recommendations of the Association of Research for Vision and Ophthalmology. Animals were maintained on a 12-h light and 12-h dark cycle. All manipulations were done under dim red or infrared light (>560 nm). Most experiments used 6-12-week-old mice. Lrat−/− mice were genotyped as described previously. Batten, et al. J. Biol. Chem. 279:10422-10432, 2004. Animals were maintained on a control chow diet up to 1 h prior to oral gavage. The appropriate amount of all-trans-ROL palmitate, all-trans-DROL, or all-trans-RA was dissolved in vegetable oil and administered by oral gavage 3 h prior to analysis.
Analysis of Retinoids. Liver (1 g) from retinoid gavaged or naive mice was homogenized in 2 ml of 137 mM NaCl, 2.7 mM KCl, and 10 mM sodium phosphate (pH 7.4) for 30 s using a Polytron homogenizer. 10 μl of 5 M NaOH was added to 3 ml of the ethanolic extract, and the nonpolar retinoids were extracted using 5 ml of hexane. The extraction was repeated, and the organic phases were combined, dried under vacuum, resuspended in hexane, and examined by normal phase HPLC using a normal phase column (Beckman Ultrasphere Si 5μ, 4.6×250 mm). […] The HPLC elution conditions were […], 100% buffer A for 40 min, 100% buffer B for 10 min, and 10 min equilibration in buffer A. The elution profiles of RA and DRA were monitored using an online diode array detector set at 350 and 290 nm, respectively. […] The measured area of absorbance was converted to picomoles based on a calibration of the HPLC columns using a known amount of all-trans-RA or all-trans-ROL (Sigma) and all-trans-DROL or all-trans-DRA (synthetic standards). The extraction efficiency was monitored by spiking a tissue sample with [^3H]RA (PerkinElmer Life Sciences) and monitoring the radioactivity recovered from the HPLC column. […]

tomato CRTISO = target: T1, tomato CRTISO (Solanum lycopersicum, UniProt Q8S4R4); assay: CRTISO activity in transfected HEKK cells; type: cell-based; settings: CRTISO-expressing cells, overnight, in the dark
T1 construct: expressed in transfected cells
T1 sequence (Q8S4R4 with tags, fused parts or gaps): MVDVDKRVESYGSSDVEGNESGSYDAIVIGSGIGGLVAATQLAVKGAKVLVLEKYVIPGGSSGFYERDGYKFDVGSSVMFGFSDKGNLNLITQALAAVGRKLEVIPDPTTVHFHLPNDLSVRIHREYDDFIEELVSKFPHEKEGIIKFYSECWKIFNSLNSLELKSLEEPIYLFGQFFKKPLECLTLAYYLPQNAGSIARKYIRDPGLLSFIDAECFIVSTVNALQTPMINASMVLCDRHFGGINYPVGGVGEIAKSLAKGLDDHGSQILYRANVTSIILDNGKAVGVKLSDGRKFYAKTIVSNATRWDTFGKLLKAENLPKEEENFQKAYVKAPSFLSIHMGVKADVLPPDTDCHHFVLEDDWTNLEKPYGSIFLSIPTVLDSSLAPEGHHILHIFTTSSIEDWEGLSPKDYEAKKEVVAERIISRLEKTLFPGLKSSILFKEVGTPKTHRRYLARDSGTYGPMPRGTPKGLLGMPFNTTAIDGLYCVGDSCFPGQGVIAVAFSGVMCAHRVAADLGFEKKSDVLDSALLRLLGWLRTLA
Protocol: 7Z,9Z,9′Z,7′Z-Tetra-cis-tycopene purification and reverse-phase HPLC analysis of carotenoids. Carotenoid extraction and analysis were performed under dim red light. One gram from the fruit of a tangerine tomato was freeze-thawed three times and extracted with 2 ml PBS, 2 ml of ethanol, and 6 ml of hexane with the aid of a douncer. The organic phase was dried and resuspended in ethanol/tetrahydrofuran (9:1), and examined by reverse-phase HPLC System I (Prontosil, 200-3-C30, 3 μm, 4.6 mm×250 mm, Bischoff Chromatography, Leonberg, Germany) with a mobile phase of 75% tert-butyl methyl ether/25% methanol and a flow rate of 1 ml/min. More than 90% of the extract consisted of 7Z,9Z,9′Z,7′Z-tetra-cis-lycopene identified based on its published UV/VIS absorption spectrum in hexane with the following characteristics: shoulder at λ=417 nm, ε=90,000 M^−1cm^−1, λmax=437 nm, ε=105,000 M−1 cm^−1, shoulder at λ=461 nm ε=70,000 M^−1cm^−1. Bradford, Anal Biochem 72:248-254, 1976.
Enzyme assays of RetSat and CRTISO-catalyzed reactions. For enzyme assay, cells were seeded in six-well plates and expression of RetSat or CRTISO was induced with 1 μg/ml tetracycline 48 hr prior to analysis. […] For retinol and dihydroretinol analysis the methanol:water mixture was extracted with two volumes of hexane, then the organic phase was dried, resuspended in hexane, and analyzed by normal-phase HPLC. […]

CC1=C(/C=C/C(C)=C/C=C/C(C)CC(=O)O)C(C)(C)CCC1 (stereo not drawn) [all-trans-DRA, all-trans-13,14-dihydroretinoic acid]
Formation in liver after gavage with all-trans-RA [1]: no evidence

CC1=C(/C=C/C(C)=C/C=C/C(C)=C/CO)C(C)(C)CCC1 [all-trans-ROL, all-trans-retinol]
Conversion by CRTISO (substrate activity) (tomato CRTISO): no saturase activity
